Data on eight compounds can be found in patent US20210147842A1, “METHODS AND COMPOSITIONS FOR INHIBITING NECROPTOSIS IN NEUROVASCULAR AND/OR NEURODEGENERATIVE DISEASES OR DISORDERS” (President and Fellows of Harvard College, priority 2019, published 2021).

Peptide text beside a SMILES is read from it. * marks the point of attachment. Cbz = O=C(OCc1ccccc1)*

Common to all, as to format: cell-based, mouse
One assay deals with A20. The experiment in a line: A20 protein level and degradation in bEnd.3 cells (western blot, cycloheximide chase). The note with it: for A20 protein levels in Nat1-KD cells: Nat1-KD bEnd.3 cells, chloroquine 10 uM, E64d 5 ug/ml, sodium acetate over 24 h.
The subject of a further assay is Nat1 mRNA. The assay is described as follows: Nat1 mRNA expression in bEnd.3 cells. The note with it: for insulin-induced Nat1 mRNA up-regulation: applied half an hour prior to insulin, MK-2206 5 uM, rapamycin 250 nM, oligomeric Aβ1-42 100 nM. From the text: FIG. 7: N-acetyltransferase 1 (Nat1) expression decreases in the brain ECs of AD. […] Fluorescence activated cell sorting (FACS) was used to isolate ECs (CD31^high and CD45^low) from single cell suspensions of brain tissues. The differentially expressed genes between APP/PS1 and WT groups were compared using edgeR and 116 genes were identified. […] Panels c and d show the expression of Nat1 protein (mouse)/Nat2 protein (human) in brain microvessels decreases during AD pathogenesis. Microvessels from mouse or human brains were isolated as described in Munikoti, et al. Journal of neuroscience methods 207, 80-85 (2012) and Boulay et al. Journal of visualized experiments: JoVE, e53208 (2015). […] Different concentrations of insulin were applied into the culture medium for 18 h. […] MK-2206(5 uM, Akt inhibitor), Repamycin (250 nM, mTOR inhibitor) or oligomeric Aβ1-42 (100 nM) was applied to the culture medium of bEnd.3 cells half an hour prior to the treatment of insulin.
To understand the mechanisms that mediate cerebral EC death and dysfunction in the pathogenesis of AD, fluorescence-activated cell sorting (FACS) was used to isolate ECs from the cerebrum of wild-type (WT) and APPswePSEN1dE9 (APP/PS1) mice (5-6 months of age). RNA sequencing (RNAseq) was used to profile gene expression between these groups, and differential gene expression was analyzed using edgeR (as described in Robinson, M. D., et al. Bioinformatics 26, 139-140 (2010)) (FIG. 7A). […] The decrease in Nat1 mRNA expression in cerebral ECs during AD pathogenesis was further confirmed by quantitative PCR (qPCR) (FIG. 7B). […] To validate the relevance of this finding in human AD pathogenesis, protein levels of NAT2 (the human homolog of mouse NAT1) in microvessels isolated from the brains of AD patients were assessed and compared to age-matched controls. […] To determine whether Nat1 expression might also be insulin-sensitive in immortalized mouse cerebral ECs (bEnd.3 cells), it was assessed whether increased concentrations of insulin could upregulate Nat1 (FIG. 7E).

The subject of another assay is bEnd.3 cells. The assay is described as follows: TNFα-induced cell death in bEnd.3 cells (SYTOX green). The following applies: Nat1-KD bEnd.3 cells, TNFα 100 ng/ml; Nec1s 10 uM, 24 h; sodium acetate in culture medium.
A further assay relates to RIPK1. The assay is described as follows: RIPK1 activation (p-S166, ubiquitination in complex I) in TNFα-treated bEnd.3 cells. The note with it: Nat1-KD bEnd.3 cells, sodium acetate 100 mM, flag-TNFα 100 ng/ml.
Assay [1] has as its system acetyl coenzyme A (acetyl-CoA). The experiment in a line: Acetyl-CoA concentration in bEnd.3 cells. The following applies: Nat1-KD bEnd.3 cells, sodium acetate over 24 h. The method, then: FIG. 9A-H: Decreased acetylation of A20 promotes the susceptibility of Nat-1 KD cells to TNFα induced cell death. […] Mitochondria was stained with MitoTracker and imaged in live cells. The scale bar represents 20 and 5 um, respectively. […] For N-terminal acetylation, subtiligase reaction as described in Yi et al. Cell 146, 607-620 (2011) was used. Biotin was added into the free N-terminal residue. […] For lysine acetylation, we first of all adjusted the protein concentrations to equalize A20 input in cell lysates of ctrl and Nat1-KD groups. Anti-acetylated lysine antibody was used for IP and anti-A20 antibody was used for WB. […] Nat1-KD bEnd.3 cells were treated with flag-TNFα (100 ng/ml) as the indicated time course. […]
Analysis of Nat1 knockout mice previously reported increased mitochondrial damage and fragmentation (Camporez, J. P. et al. Proceedings of the National Academy of Sciences of the United States of America 114, E11285-E11292 (2017)). […] Since Nat1 deficiency affects metabolism which may affect the cellular levels of acetyl-CoA, the concentration of total acetyl-CoA in Nat1-KD cells was determined. […] Further, supplementation with sodium acetate is also able to rescue the hyperactivation of RIPK1 in Nat1-KD cells in response to TNFα, as measured by RIPK1 ubiquitination (FIG. 9G). […]

Protocol for A20: (§1) Nat1-KD in bEnd.3 cells were conducted by lentivirus transfection with Nat1 shRNA. Ctrl group was transfected with lentivirus expressing scrambled shRNA. The efficiency of Nat-1 KD was confirmed by western blotting (WB). TNFα(100 ng/ml) was applied in Ctrl or Nat-KD cells for 24 h with or without Ripk1 inhibitor, Nec1s (10 uM). Cell death was quantified with SYTOX green staining. […] Using Tandem Mass Tag (TMT) isobaric labeling mass spectrometry (MS), we identified 7707 proteins in Nat1-KD and Ctrl bEND.3 cells. […] Nat1-KD or Ctrl bEnd.3 cells were treated with Flag-TNFα (50 ng/ml) as the indicated time course. Ripk1 activation was examined by the blotting of p-S166 Ripk1 for cell lysates.
Panels b and c show bEnd.3 cells treated with cycloheximide (CHX, 250 ug/ml) to investigate the degradation kinetics of A20. […] Panels e and f show Chloroquine (CQ, 10 uM) and E64d (5 ug/ml) applied for inhibiting lysosomal protein degradation.
(§2) Since A20 is an important suppressor of RIPK1 activation, RIPK1 activation and Complex I assembly were next assessed in Nat1-KD or Ctrl bEnd.3 cells treated with TNFα.
To understand the mechanism by which A20 is decreased in Nat1-KD cells, it was first assessed whether this alteration was occurring at the protein or mRNA level. […] Nat1-KD and Ctrl bEnd.3 cells were treated with cycloheximide to investigate the kinetics of A20 degradation.
Protocol for RIPK1: as §1
Mitochondria was stained with MitoTracker and imaged in live cells. […] For N-terminal acetylation, subtiligase reaction as described in Yi et al. Cell 146, 607-620 (2011) was used. Biotin was added into the free N-terminal residue. […] For lysine acetylation, we first of all adjusted the protein concentrations to equalize A20 input in cell lysates of ctrl and Nat1-KD groups. Anti-acetylated lysine antibody was used for IP and anti-A20 antibody was used for WB. […]
as §2

Turning to `CCOC(=O)[C@H]1O[C@@H]1C(=O)N[C@@H](CC(C)C)C(=O)NCCC(C)C` [E64D], in the assay with A20, the “A20 protein levels in Nat1-KD cells” value is “rescued”.

As for `CC(C)C[C@@H](C=O)NC(=O)[C@H](CC(C)C)NC(=O)[C@H](CC(C)C)NC(=O)OCc1ccccc1` [MG132] (Cbz-Leu-Leu-Leu-aldehyde), the “protein expression of A20” value in the assay on A20 (both Ctrl and Nat1-KD bEnd.3 cells, MG132 10 uM) is recorded as “reduced”.

For `NC1(c2ccc(-c3nc4ccn5c(=O)[nH]nc5c4cc3-c3ccccc3)cc2)CCC1` [MK-2206], the “insulin-induced Nat1 mRNA up-regulation” value with Nat1 mRNA is listed as “negated”.

Take `CN1C(=O)NC(Cc2c[nH]c3c(Cl)cccc23)C1=O` (centres unmarked) [Nec-1s]: in the assay with bEnd.3 cells, the “TNFα-induced cell death in Nat1-KD cells” value is “rescued”.

`CCN(CC)CCCC(C)Nc1ccnc2cc(Cl)ccc12` (centres unmarked) [chloroquine]: the “A20 protein levels in Nat1-KD cells” value in the assay with A20 is “rescued”.

Regarding `CC(=O)[O-].[Na+]` [sodium acetate], in the assay with A20, the “A20 protein levels in Nat1-KD cells” value is reported as “rescue”. Besides, the “hyperactivation of RIPK1 in response to TNFα, as measured by RIPK1 ubiquitination” value with RIPK1 is on record as “rescue”. In addition, the “TNFα-induced cell death in Nat1-KD cells” value in the assay with bEnd.3 cells is “rescues”. Moreover, the “acetyl-CoA in Nat1-KD cells” value in assay [1] is on record as “rescue”.

Consider “insulin: exogenous insulin applied into the culture medium”, for which the “Nat1 mRNA expression” value in the assay on Nat1 mRNA (different concentrations in culture medium, 18 h) was “increases”.

Regarding “oligomeric Aβ1-42: oligomeric amyloid beta 1-42”, the “insulin-induced Nat1 mRNA up-regulation” value in the assay on Nat1 mRNA is on record as “blocked”.
